Results as given in patent US20260374766A1, “METHODS FOR TREATING CANCER” (Antares Therapeutics, Inc., priority 2022, published 2026).
Like-named read-outs stand apart in the source and are kept apart here.

Columns and labels:
[1] = biological target: T1, p53 Y220C mutant protein (amino acid residues 94-293) (Homo sapiens, UniProt P04637, Y220C); assay: Surface Plasmon Resonance (SPR) assay, Kd_kinetic; assay type: binding; conditions: read-out: SPR P53 Y220C KD kinetic
T1 construct: p53 Y220C mutant protein (amino acid residues 94-293)
Outline: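 Temperature held at 16 or 20 °C during Biacore 8K runs. Buffer: 50 mM Tris, pH 7.5, 100 mM NaCl, 1 mM DTT, 0.01% Brij35, 0.05% Tween-20, 1% DMSO.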

[2] = biological target: T1, p53 Y220C mutant protein (amino acid residues 94-293); assay: Thermal Shift Assay (TSA), dTM; assay type: binding; conditions: for ΔTm at 10 µM: 10 uM compound; for ΔTm at 100 µM: 100 uM compound
Outline: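 TM is derived by fitting Sypro Orange melt curves (30 °C to 50 °C, 0.03 °C/second) to a Boltzmann two-state model. Beforehand, 5 μM p53 Y220C (94-293) sits with 10 μM or 100 μM compound for 3 hours at 20 °C in HEPES pH7.4 buffer containing 100 mM NaCl and 1% DMSO.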

H1299 p53 R273H = assay: Cell Proliferation Assay (CellTiter-Glo, CTG), H1299 p53 R273H (NClH1299-inducible p53 R273H); assay type: cell-based; conditions: Homo sapiens, NCI-H1299, 120 h, 5 days, CellTiter-Glo
Outline: (§1)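 NClH1299 lines stably transduced with Tet-inducible p53 Y220C or R273H, plus NUGC3, were treated with compound for 5 days at 250-500 cells/well. IC50 derived from CellTiter-Glo luminescent signal after 10 min room-temperature incubation.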

NUGC3 p53 Y220C = assay: Cell Proliferation Assay (CellTiter-Glo, CTG), NUGC3 p53 Y220C; assay type: cell-based; conditions: Homo sapiens, NUGC-3, 120 h, 5 days, CellTiter-Glo
Outline: as §1

H1299 p53 Y220C = assay: Cell Proliferation Assay (CellTiter-Glo, CTG), H1299 p53 Y220C (NClH1299-inducible p53 Y220C); assay type: cell-based; conditions: Homo sapiens, NCI-H1299, 120 h, 5 days, CellTiter-Glo
Outline: as §1

p53 Y220C = p53 Y220C (Homo sapiens, UniProt P04637, Y220C); assay: Luciferase Reporter Assay (Luc), p53 response element, NClH1299 cells with inducible p53 Y220C; assay type: cell-based; conditions: luciferase reporter, NClH1299 inducible p53 Y220C, 6 hour; for AC50: read-out: Luc P53 Y220C AC50
Outline: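 Doxycycline (0.5 ug/mL, 24 h) induces the mutant before a 6-hour compound treatment. Reporter activity is then quantified by One-Glo luminescence.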

[3] = p53 Y220C, read-out: TSA P53 Y220C dTM
[4] = NClH1299-inducible p53 R273H cells
[5] = NClH1299-inducible p53 Y220C cells
[6] = thermal shift, read-out: TSA P53 Y220C dTM (10 uM)
[7] = thermal shift, read-out: TSA P53 Y220C dTM (100 uM)
[8] = 10 uM tool compound as positive control

| SMILES | Kd ([1]; SPR, p53 Y220C) [nM] | ΔTm at 10 µM [2, 3] [°C] | ΔTm at 100 µM [2, 3] [°C] | IC50 (H1299 p53 R273H; [4]) [nM] | IC50 (NUGC3 p53 Y220C; NUGC3 cells) [nM] | IC50 (H1299 p53 Y220C; [5]) [nM] | AC50 (p53 Y220C; AC50) [nM] | Emax (p53 Y220C; Emax) [%] | Kd ([1]; SPR, kinetic KD, p53 Y220C) [nM] | ΔTm at 10 µM [2, 6] [°C] | ΔTm at 100 µM [2, 7] [°C] | IC50 (H1299 p53 R273H; H1299 p53 R273H) [nM] | IC50 (NUGC3 p53 Y220C; NUGC3 p53 Y220C) [nM] | IC50 (H1299 p53 Y220C; H1299 p53 Y220C) [nM] | Emax (p53 Y220C; [8]) [%] | AC50 (p53 Y220C) [nM] | Kd [1] [nM] |
| --- | --- | --- | --- | --- | --- | --- | --- | --- | --- | --- | --- | --- | --- | --- | --- | --- | --- |
| CNC(=O)c1ccc(NCC#Cc2nc3c(N[C@@H]4CCN(C)C[C@@H]4F)cccn3c2SC(F)(F)F)c(C)c1 [Example 239] | < 10 | ≥ 10 | ≥ 10 | 8000 to 10000 | < 750 | < 750 | < 750 | > 90 |  |  |  |  |  |  |  |  |  |
| CNC(=O)c1ccc(NCC#Cc2nc3c(N[C@@H]4CCNC[C@@H]4F)cccn3c2SC(F)(F)F)c(OC)c1 [Example 100, 4-{[3-(8-{[(3S,4R)-3-fluoropiperidin-4-yl]amino}-3-[(trifluoromethyl)sulfanyl]imidazo[1,2-a]pyridin-2-yl)prop-2-yn-1-yl]amino}-3-methoxy-N-methylbenzamide] |  |  |  |  |  |  |  |  | < 10 | ≥ 10 | ≥ 10 | 5000 to 8000 | < 750 | < 750 | 80 to 90 | < 750 |  |
| CNC(=O)c1ccc(NCC#Cc2cc3c(N[C@@H]4CCN(C5COC5)C[C@@H]4F)nccn3c2SC(F)(F)F)c(OC)c1 [Example 350] |  | ≥ 10 |  | ≥ 10000 | < 750 | < 750 | < 750 | > 90 |  |  |  |  |  |  |  |  | < 10 |
| CNC(=O)c1ccc(NCC#Cc2nc3c(N[C@H]4CN(C)CC[C@@H]4F)cccn3c2SC(F)(F)F)c(OC)c1 [Example 147] |  |  |  |  |  |  |  |  | < 10 | ≥ 10 | ≥ 10 | 8000 to 10000 | < 750 | < 750 | > 90 | < 750 |  |
| CNC(=O)c1ccc(C#N)c(NCC#Cc2cc3c(N[C@@H]4CCN(C)C[C@@H]4F)nccn3c2SC(F)(F)F)c1 [Example 300] | < 10 | ≥ 10 |  | ≥ 10000 | < 750 | < 750 | < 750 | > 90 |  |  |  |  |  |  |  |  |  |
| CNC(=O)c1ccc(NCC#Cc2nc3c(N[C@H]4CCn5nccc5C4)cccn3c2SC(F)(F)F)c(OC)c1 [Example 178] |  |  |  |  |  |  |  |  | 10 to 100 | 5 to 10 | 5 to 10 | 5000 to 8000 | 750 to 1500 | 750 to 1500 | < 70 | 1500 to 3000 |  |
| CNC(=O)c1cc(NCC#Cc2nc3c(N[C@@H]4CCN(C)C[C@@H]4F)cccn3c2SC(F)(F)F)c(OC)cn1 [Example 148] |  |  |  |  |  |  |  |  | < 10 | ≥ 10 | ≥ 10 | ≥ 10000 | < 750 | < 750 | 70 to 80 | < 750 |  |
| CNC(=O)c1ccc(NCC#Cc2nc3c(NC4CCN(C)CC4)cccn3c2SC(F)(F)F)c(OC)c1 [Example 129] |  |  |  |  |  |  |  |  | < 10 | ≥ 10 | ≥ 10 | 5000 to 8000 | < 750 | < 750 | 80 to 90 | < 750 |  |
| CCOc1c(C#CCNc2ccc(C(=O)NC)cc2OC)nc2c(N[C@@H]3CCN(C)C[C@@H]3F)cccn12 [Example 17, 4-{[3-(3-ethoxy-8-{[(3S,4R)-3-fluoro-1-methylpiperidin-4-yl]amino}imidazo[1,2-a]pyridin-2-yl)prop-2-yn-1-yl]amino}-3-methoxy-N-methylbenzamide] |  |  |  |  |  |  |  |  | 100 to 1000 |  | 1 to 5 | ≥ 10000 | > 3000 | > 3000 | < 70 | > 3000 |  |
| CNC(=O)c1cnc(OC)c(NCC#Cc2nn3c(N[C@@H]4CCN(C)C[C@@H]4F)cccc3c2SC(F)(F)F)c1 [Example 260] | < 10 | ≥ 10 |  | 8000 to 10000 | < 750 | < 750 | < 750 | 80 to 90 |  |  |  |  |  |  |  |  |  |
| COc1cc(S(C)(=O)=O)ccc1NCC#Cc1nc2c(NC3CCN(CC(C)(C)O)CC3)cccn2c1CC(F)(F)F [Example 11, 1-{4-[(2-{3-[(4-methanesulfonyl-2-methoxyphenyl)amino]prop-1-yn-1-yl}-3-(2,2,2-trifluoroethyl)imidazo [1,2-a]pyridin-8-yl)amino]piperidin-1-yl}-2-methylpropan-2-ol] |  |  |  |  |  |  |  |  | 10 to 100 |  | ≥ 10 | 5000 to 8000 | 1500 to 3000 | 750 to 1500 | 70 to 80 | 1500 to 3000 |  |
| CNC(=O)c1cnc(OC)c(NCC#Cc2nn3c(N[C@@H]4CCN(C)C[C@@H]4F)cccc3c2SC(F)F)c1 [Example 268] | < 10 | ≥ 10 | ≥ 10 | < 5000 | < 750 | < 750 | < 750 | > 90 |  |  |  |  |  |  |  |  |  |
| CNC(=O)c1cnc(OC)c(NCC#Cc2cc3c(N[C@@H]4CCN(C)C[C@@H]4F)nccn3c2SC(F)F)c1 [Example 327] | < 10 | ≥ 10 |  | ≥ 10000 | < 750 | < 750 | < 750 | > 90 |  |  |  |  |  |  |  |  |  |
| CCNC(=O)c1cnc(OC)c(NCC#Cc2nc3c(N[C@@H]4CCN(C)C[C@@H]4F)cccn3c2SC(F)(F)F)c1 [Example 293] | < 10 | ≥ 10 |  | ≥ 10000 | < 750 | < 750 | < 750 | 80 to 90 |  |  |  |  |  |  |  |  |  |
| COC[C@H](O)CN1CCC(Nc2cccn3c(CC(F)(F)F)c(C#CCNc4ccc(S(C)(=O)=O)cc4OC)nc23)CC1 [Example 14, (2R)-1-{4-[(2-{3-[(4-methanesulfonyl-2-methoxyphenyl)amino]prop-1-yn-1-yl}-3-(2,2,2-trifluoroethyl)imidazo[1,2-a]pyridin-8-yl)amino]piperidin-1-yl}-3-methoxypropan-2-ol] |  |  |  |  |  |  |  |  | 10 to 100 |  | ≥ 10 | 5000 to 8000 | 750 to 1500 | 750 to 1500 | 70 to 80 | 1500 to 3000 |  |
| CNC(=O)c1ccc(OC)c(NCC#Cc2nn3c(N[C@@H]4CCNC[C@@H]4F)cccc3c2SC(F)F)c1 [Example 195] |  |  |  |  |  |  |  |  | < 10 | ≥ 10 | ≥ 10 | 5000 to 8000 | < 750 | < 750 | 80 to 90 | < 750 |  |
| CNC(=O)c1ccc(C(=O)NC)c(NCC#Cc2cc3c(N[C@@H]4CCN(C)C[C@@H]4F)nccn3c2SC(F)(F)F)c1 [Example 348] | < 10 | ≥ 10 |  | ≥ 10000 | < 750 | < 750 | < 750 | > 90 |  |  |  |  |  |  |  |  |  |
| C[C@H](O)C#Cc1nc2c(N[C@@H]3CCN(C)C[C@@H]3F)cccn2c1CC(F)(F)F [Example 71, (2S)-4-(8-{[(3S,4R)-3-fluoro-1-methylpiperidin-4-yl]amino}-3-(2,2,2-trifluoroethyl)imidazo[1,2-a]pyridin-2-yl)but-3-yn-2-ol] |  |  |  |  |  |  |  |  | 100 to 1000 |  | 5 to 10 | ≥ 10000 | > 3000 | > 3000 | < 70 | > 3000 |  |
| CNC(=O)c1ccc(OC)c(NCC#Cc2cc3c(N[C@@H]4CCNC[C@@H]4F)nccn3c2SC(F)(F)F)c1 [Example 289] | < 10 | ≥ 10 | ≥ 10 | 5000 to 8000 | < 750 | < 750 | < 750 | > 90 |  |  |  |  |  |  |  |  |  |
